For orientation: solubility means how much of the substance goes into solution per volume. A word on the Vd: it is a proportionality between amount in the body and measured concentration, not a real space. Low readings indicate confinement near the circulation, high ones extensive tissue distribution. A word on the clearance: it is a measure of how efficiently the substance is removed, as volume per time. Low readings indicate a low capacity for elimination, high ones a high capacity for elimination. The term AUC denotes concentration integrated over time. Low values mean low exposure, high ones high exposure. As usually defined, the MRT is the average time that molecules of a dose stay in the body.

Each structure is given as a SMILES string. In brackets after ≈: the same amount, converted by molar mass.

A short description of series [1]: Solubility of compound in FASSIF at pH 6.5. It is filed as physicochemical.
Series [2] in a line: Volume of distribution in Wistar rat. The note with it: in vivo. In kind it is ADME.
Series [3] is described as follows: Clearance in Wistar rat. The note with it: in vivo. It is filed as ADME.
Series [4] is described as follows: AUC in Wistar rat. In kind it is ADME. The following applies: in vivo.
Series [5] can be described thus: MRT in Wistar rat. In kind it is ADME. The following applies: in vivo.

For the compound `CNC(=O)c1c(-c2ccc(F)cc2)oc2cc(N(C)S(C)(=O)=O)c(-c3ccc4nc(C)n(Cc5ccc(F)cc5)c(=O)c4c3)cc12`, the solubility in series [1] (FaSSIF, read-out: solubility) came out at 70 µM (≈ 45 µg/mL). This compound also yielded a Vd in series [2] of 4.28 L/kg. Besides, the clearance in series [3] came to 27.4 mL/min/kg. In series [4], the AUC is 1.06 µM·h. The MRT in series [5] worked out at 2.84 h.
In turn, `CNC(=O)c1c(-c2ccc(F)cc2)oc2cc(N(C)S(C)(=O)=O)c(-c3ccc4c(n3)-c3cc5c(F)cccc5n3CO4)cc12` [MK-8876] gave a solubility in series [1] (simulated gi fluid) of 42 µM (≈ 25.8 µg/mL). Also, in series [2], the Vd was 5.79 L/kg. Further, the clearance in series [3] was determined as 7.03 mL/min/kg. In series [4], this compound returned an AUC of 3.92 µM·h. In series [5], this compound showed an MRT of 18.1 h.

The record behind these values is ChEMBL document CHEMBL4627285, “Multi-step parallel synthesis enabled optimization of benzofuran derivatives as pan-genotypic non-nucleoside inhibitors of HCV NS5B” (Bioorg Med Chem Lett, 2020).
